Experimental data reported in patent US6875582B1 (priority 1999, dated 2005).

How the values were obtained:
[1] = test system: WT K. pneumoniae Tim 19 (TEM-1 beta-lactamase); type: cell-based, Klebsiella pneumoniae; conditions: for Drug-Resistance Phenotype: WT K. pneumoniae Tim 19, TEM-1; for Resistance or sensitivity of clinical isolate: K. pneumoniae strain Tim 19 containing TEM-1 beta-lactamase
[2] = test system: K. pneumoniae Tim 19 CTX^R mutants; experiment: Multi-drug-resistance phenotype of CTX-selected mutants; type: cell-based, Klebsiella pneumoniae; conditions: CTX^R mutants (8 analyzed), MNNG continuous culture, selected with CTX 2-550 μg/ml
E. coli ATCC 11775 = type: cell-based
[3] = test system: E. coli 11775 NA^R mutants; experiment: Antimicrobial disk-diffusion test (antibiogram) of clones selected on nalidixic acid gradient plates; type: cell-based

SMILES: C[C@H]1[C@H](NC(=O)/C(=N\OC(C)(C)C(=O)O)c2csc(N)n2)C(=O)N1S(=O)(=O)O [ATM, aztreonum]
- Drug-Resistance Phenotype [1]: CTX^S, CAZ^S, FOX^S, ATM^S
- Drug-Resistance Phenotype [2]: CTX^R, CAZ^R, FOX^R, ATM^R

SMILES: CC(C)(O/N=C(\C(=O)N[C@@H]1C(=O)N2C(C(=O)[O-])=C(C[n+]3ccccc3)CS[C@H]12)c1csc(N)n1)C(=O)O [CAZ, ceftazidime]
- Resistance or sensitivity of clinical isolate [1]: sensitive
- Drug-Resistance Phenotype [1]: CTX^S, CAZ^S, FOX^S, ATM^S
- Drug-Resistance Phenotype [2]: CTX^R, CAZ^R, FOX^R, ATM^R

SMILES: CO/N=C(\C(=O)N[C@@H]1C(=O)N2C(C(=O)O)=C(COC(C)=O)CS[C@H]12)c1csc(N)n1 [CTX, cefotaxime]
- Resistance or sensitivity of clinical isolate [1]: sensitive
- Drug-Resistance Phenotype [1]: CTX^S, CAZ^S, FOX^S, ATM^S
- Drug-Resistance Phenotype [2]: CTX^R, CAZ^R, FOX^R, ATM^R

SMILES: CCOS(C)(=O)=O [EMS, Ethyl Methanesulfonate]
- Mutant Frequencies (NA^R phenotype) (E. coli ATCC 11775): 1.2 × 10^−7
- Survival (%) (E. coli ATCC 11775): 64%

SMILES: CO[C@@]1(NC(=O)Cc2cccs2)C(=O)N2C(C(=O)O)=C(COC(N)=O)CS[C@@H]21 [FOX, cefoxitin]
- Resistance or sensitivity of clinical isolate [1]: sensitive
- Drug-Resistance Phenotype [1]: CTX^S, CAZ^S, FOX^S, ATM^S
- Drug-Resistance Phenotype [2]: CTX^R, CAZ^R, FOX^R, ATM^R

SMILES: CCn1cc(C(=O)O)c(=O)c2ccc(C)nc21 [NA, nalidixic acid]
- Phenotype (nalidixic acid resistance) ([3]; mutant D2C2-a, EMS continuous culture, 82 generations, Gly-81→Cys): Partially NA^R
- Phenotype (nalidixic acid resistance) ([3]; mutant D2C2-h, EMS continuous culture, 62 generations, Gly-81→Cys): Partially NA^R
- Phenotype (nalidixic acid resistance) ([3]; mutant D2C2-l, EMS continuous culture, 62 generations, Gly-82 (GAC)→Asn): Partially NA^R
- Phenotype (nalidixic acid resistance) ([3]; mutant D3NX-E5, EMS continuous culture, 135 generations, Ser-83→Leu): Completely NA^R
- Phenotype (nalidixic acid resistance) ([3]; mutant D3NX-E6, EMS continuous culture, 135 generations, Ser-83→Leu): Completely NA^R
- Phenotype (nalidixic acid resistance) ([3]; mutant D7NX-E1, EMS continuous culture, 403 generations, Ser-83→Leu): Completely NA^R
- Phenotype (nalidixic acid resistance) ([3]; mutant D7NX-E2, EMS continuous culture, 403 generations, Ser-83→Leu): Completely NA^R
- Phenotype (nalidixic acid resistance) ([3]; mutant NX-E09, EMS, batch culture, gyrA Asp-87→Ile): Partially NA^R
- Phenotype (nalidixic acid resistance) ([3]; mutant NX-E10, EMS, batch culture, gyrA Ser-83→Leu): Completely NA^R
- Phenotype (nalidixic acid resistance) ([3]; mutant NX-M3, MNNG, batch culture, gyrA Asp-87→Gly): Partially NA^R
- Phenotype (nalidixic acid resistance) ([3]; mutant NX-M5, MNNG, batch culture, gyrA Asp-87→Asn): Partially NA^R
- Phenotype (nalidixic acid resistance) ([3]; mutant NX-M6, MNNG, batch culture, gyrA Asp-87→Gly): Partially NA^R
- Phenotype (nalidixic acid resistance) ([3]; mutant NX-N6, NQO, batch culture, gyrA Ser-83→Leu): Completely NA^R

SMILES: O=[N+]([O-])c1cc[n+]([O-])c2ccccc12 [NQO, 4Nitroquinoline-lxide]
- Mutant Frequencies (NA^R phenotype) (E. coli ATCC 11775): 0.6 × 10^−8
- Survival (%) (E. coli ATCC 11775): 77%

SMILES: CC1(C)S[C@@H]2[C@H](NC(=O)[C@H](N)c3ccccc3)C(=O)N2[C@H]1C(=O)O [ampicillin]
- Resistance or sensitivity of clinical isolate [1]: resistance
